Source: patent publication US20260098030A1, “NEGATIVE ALLOSTERIC MODULATORS OF METABOTROPIC GLUTAMATE RECEPTOR 2” (Vanderbilt University, priority 2022, published 2026)

target: T1, rat mGlu2 (Rattus norvegicus, UniProt P31421); assay: mGlu GIRK cell-based thallium flux assay, rat mGlu2; details: HEK-293 cells co-expressing rat mGlu2 and GIRK, EC80 glutamate
T1 construct: expressed in transfected cells; host or cells: HEK-293 cells stably co-expressing GIRK channels
Description: Human embryonic kidney (HEK-293) cell lines stably co-expressing human or rat mGlu2 and G protein-coupled inwardly rectifying potassium (GIRK) channels, or human mGlu3 and GIRK, were used for in vitro evaluation of compound activity in thallium flux assay using a fluorescent thallium indicator dye.
The day before the assay, GIRK cells co-expressing human mGlu3, human or rat mGlu2, as described above, were plated in black-walled, clear-bottomed, amine-coated 384-well plates at a density of 15,000 cells/20 μL/well in the assay medium (glutamine-depleted basal DMEM supplemented with 10% dialyzed FBS, 20 mM HEPES, 1 mM sodium pyruvate). Cells were incubated at 37° C. in the presence of 5% CO2. The next day, assay buffer (Hanks balanced salt solution, 20 mM HEPES, 4.16 mM sodium bicarbonate, pH 7.2) was prepared to dilute compounds and Thallos AM fluorescent dye solution. The 2× Thallos dye solution (final concentration 0.34 μM to the cells) was prepared by mixing the dye stock (2.97 mM in DMSO) to 1:1 with 10% pluronic acid before adding to the assay buffer. Cells were washed with assay buffer using a microplate washer to remove the medium, resulting in 20 μL of buffer remaining in each well. Immediately, 20 μL of 2× Thallos dye solution was added to cells, and incubated for one hour at 25° C. During the cell dye loading incubation period, a 10-point concentration serial dilution of compound was created from a 10 mM DMSO compound stock by performing a 1:3 serial dilution in DMSO using the Bravo liquid handler. The 2× compound plate was generated by transferring 0.24 μL of the diluted compound in each well to a daughter plate using an Echo acoustic liquid handler. This is further diluted in 40 μL assay buffer, resulting in a range from 30 μM to 1.5 nM final concentration in the assay. The agonist plate (5×) was prepared to include EC80 glutamate concentration (a concentration to elicit 80% of a maximally effective glutamate concentration) in thallium buffer (125 mM […], 1 mM magnesium sulfate, 1.8 mM calcium sulfate, 5 mM glucose, 10 mM HEPES, pH 7.2, 12.5 mM thallium sulfate).
After dye-loading, cell plates were washed with assay buffer to remove excess extracellular dye using a microplate washer, resulting in 20 μL of buffer remaining in each well. After a ten-minute equilibration period, cell, compound and agonist plates were loaded into a Hamamatsu μCell kinetic imaging plate reader equipped with liquid handler to monitor fluorescence changes at 480 nm excitation and 540 nm emission settings. Briefly, after collection of baseline fluorescence, 20 μL of compound was added and incubated for two minutes and twenty seconds. This is immediately followed by adding 10 μL of glutamate-thallium buffer to the wells containing compound. The fluorescent signal was monitored an additional 2.5 minutes after the glutamate addition. Multiple reference wells containing no compound received either no glutamate (for a baseline reference), EC80 glutamate, or ECmax glutamate (for normalization to maximum response). Fluorescence was measured throughout the experiment at a frequency of 1 measurement per every 2 seconds before the glutamate addition and a frequency of 1 measurement per every 1 second after the glutamate addition. Each compound concentration series occurred one time in each plate, and replicates from two or three plates were used in each experimental run. Thallium solutions were handled and disposed of according to guidelines from the Vanderbilt University Chemical Safety department.
Data were normalized using a static ratio function (F/F0) by dividing every fluorescent measurement by the initial fluorescent value for the corresponding well. The increase in signal resulting from the glutamate/thallium addition of the second add was measured by determining the slope from 3 seconds to 13 seconds after the addition. […]

T1 sequence (P31421 19-872): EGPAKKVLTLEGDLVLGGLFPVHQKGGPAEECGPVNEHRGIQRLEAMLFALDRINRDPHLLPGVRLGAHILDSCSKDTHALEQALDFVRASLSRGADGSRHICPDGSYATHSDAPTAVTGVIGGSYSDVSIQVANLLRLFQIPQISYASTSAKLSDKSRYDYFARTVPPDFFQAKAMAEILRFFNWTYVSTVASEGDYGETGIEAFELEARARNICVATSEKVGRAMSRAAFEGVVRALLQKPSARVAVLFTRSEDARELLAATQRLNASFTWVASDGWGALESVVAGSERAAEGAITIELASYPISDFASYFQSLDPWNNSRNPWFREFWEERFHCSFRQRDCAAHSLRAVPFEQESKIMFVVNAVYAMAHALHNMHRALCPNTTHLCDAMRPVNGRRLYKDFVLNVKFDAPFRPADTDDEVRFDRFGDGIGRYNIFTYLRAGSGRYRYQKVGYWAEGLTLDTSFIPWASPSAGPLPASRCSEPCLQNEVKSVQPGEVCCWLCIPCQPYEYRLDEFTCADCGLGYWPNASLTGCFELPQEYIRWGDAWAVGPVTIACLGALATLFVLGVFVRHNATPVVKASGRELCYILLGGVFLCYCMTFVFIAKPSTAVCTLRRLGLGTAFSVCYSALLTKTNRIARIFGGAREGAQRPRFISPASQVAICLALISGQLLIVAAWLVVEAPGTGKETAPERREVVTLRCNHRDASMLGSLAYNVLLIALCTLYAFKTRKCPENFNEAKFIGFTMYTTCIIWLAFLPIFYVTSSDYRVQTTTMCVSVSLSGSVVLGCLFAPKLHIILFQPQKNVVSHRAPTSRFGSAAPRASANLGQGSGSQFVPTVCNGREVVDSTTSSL

SMILES | IC50
O=C1NCc2cc(-c3ccccn3)c(-c3ccc(F)cc3)cc21 [Compound 45, 6-(4-fluorophenyl)-5-(pyridin-2-yl)isoindolin-1-one] | > 10 µM
Cc1ncccc1-c1cc2c(cc1-c1ccc(F)cc1)C(=O)NC2 [Compound 41, 6-(4-fluorophenyl)-5-(2-methylpyridin-3-yl)isoindolin-1-one] | > 10 µM
Cc1cc(F)ncc1-c1cc2c(cc1-c1ccc(F)cc1)C(=O)NC2 [Compound 37, 5-(6-fluoro-4-methylpyridin-3-yl)-6-(4-fluorophenyl)isoindolin-1-one] | > 10 µM
O=C1NCc2cc(-c3ccc(C(F)(F)F)nc3)c(-c3ccc(F)cc3)cc21 [Compound 27, 6-(4-fluorophenyl)-5-(6-(trifluoromethyl)pyridin-3-yl)isoindolin-1-one] | > 10 µM
O=C1NCc2cc(-c3ccc4ccncc4c3)c(-c3ccc(F)cc3)cc21 [Compound 15, 6-(4-fluorophenyl)-5-(isoquinolin-7-yl)isoindolin-1-one] | 4.06 µM
O=C1NCc2cc(-c3ccc(C4CC4)nc3)c(-c3ccc(F)cc3F)cc21 [Compound 70, 5-(6-cyclopropylpyridin-3-yl)-6-(2,4-difluorophenyl)isoindolin-1-one] | 1.98 µM
CC1(C)CNCC=C1c1cc2c(cc1-c1ccc(F)cc1)C(=O)NC2 [Compound 76, 5-(3,3-dimethyl-1,2,3,6-tetrahydropyridin-4-yl)-6-(4-fluorophenyl)isoindolin-1-one] | > 10 µM
Cn1ccc(-c2cc3c(cc2-c2ccc(F)cc2)C(=O)NC3)n1 [Compound 35, 6-(4-fluorophenyl)-5-(1-methyl-1H-pyrazol-3-yl)isoindolin-1-one] | 1.03 µM
Cc1ncccc1-c1cc2c(cc1-c1ccc(F)cc1F)C(=O)NC2 [Compound 73, 6-(2,4-difluorophenyl)-5-(2-methylpyridin-3-yl)isoindolin-1-one] | 4.41 µM
CN1CC=C(c2cc3c(cc2-c2ccc(F)cc2)C(=O)NC3)CC1 [Compound 58, 6-(4-fluorophenyl)-5-(1-methyl-1,2,3,6-tetrahydropyridin-4-yl)isoindolin-1-one] | > 10 µM
O=C1NCc2cc(-c3ccc4[nH]ccc4c3)c(-c3ccc(F)cc3)cc21 [Compound 49, 6-(4-fluorophenyl)-5-(1H-indol-5-yl)isoindolin-1-one] | > 10 µM
O=C1NCc2cc(-c3ccc4ncccc4c3)c(-c3ccc(F)cc3)cc21 [Compound 19, 6-(4-fluorophenyl)-5-(quinolin-6-yl)isoindolin-1-one] | 4.31 µM
O=C1NCc2cc(C3CCNCC3)c(-c3ccc(F)cc3)cc21 [Compound 67, 6-(4-fluorophenyl)-5-(piperidin-4-yl)isoindolin-1-one] | > 10 µM
CN(C)c1ccc(-c2cc3c(cc2-c2ccc(F)cc2)C(=O)NC3)cn1 [Compound 34, 5-(6-(dimethylamino)pyridin-3-yl)-6-(4-fluorophenyl)isoindolin-1-one] | > 10 µM
Cc1nc(F)ccc1-c1cc2c(cc1-c1ccc(F)cc1)C(=O)NC2 [Compound 30, 5-(6-fluoro-2-methylpyridin-3-yl)-6-(4-fluorophenyl)isoindolin-1-one] | > 10 µM
Cc1n[nH]c2ccc(-c3cc4c(cc3-c3ccc(F)cc3)C(=O)NC4)cc12 [Compound 47, 6-(4-fluorophenyl)-5-(3-methyl-1H-indazol-5-yl)isoindolin-1-one] | > 10 µM
CN1CCC(c2cc3c(cc2-c2ccc(F)cc2)C(=O)NC3)CC1 [Compound 66, 6-(4-fluorophenyl)-5-(1-methylpiperidin-4-yl)isoindolin-1-one] | > 10 µM
O=C1NCc2cc(-c3ccc(C4CC4)nc3)c(-c3ccc(F)cc3)cc21 [Compound 26, 5-(6-cyclopropylpyridin-3-yl)-6-(4-fluorophenyl)isoindolin-1-one] | > 10 µM
O=C1NCc2cc(C3=CCCNC3)c(-c3ccc(F)cc3)cc21 [Compound 61, 6-(4-fluorophenyl)-5-(1,2,5,6-tetrahydropyridin-3-yl)isoindolin-1-one] | > 10 µM
O=C1NCc2cc(-c3ccc4nccn4c3)c(-c3ccc(F)cc3)cc21 [Compound 20, 6-(4-fluorophenyl)-5-(imidazo[1,2-a]pyridin-6-yl)isoindolin-1-one] | 8.31 µM
CC1C=C(c2cc3c(cc2-c2ccc(F)cc2)C(=O)NC3)CC(C)N1 (centres unmarked) [Compound 62, 5-(2,6-dimethyl-1,2,3,6-tetrahydropyridin-4-yl)-6-(4-fluorophenyl)isoindolin-1-one] | > 10 µM
Cc1ccc(-c2cc3c(cc2-c2ccc(F)cc2)C(=O)NC3)c(C)n1 [Compound 29, 5-(2,6-dimethylpyridin-3-yl)-6-(4-fluorophenyl)isoindolin-1-one] | 3.6 µM

Second part, the compound after the results:

IC50 | SMILES
> 10 µM | Cc1nnc(-c2ccc(-c3cc4c(cc3-c3ccc(F)cc3F)C(=O)NC4)cc2F)o1 [Compound 112, 6-(2,4-difluorophenyl)-5-(3-fluoro-4-(5-methyl-1,3,4-oxadiazol-2-yl)phenyl)isoindolin-1-one]
> 10 µM | N#Cc1cc(-c2cc3c(cc2-c2ccc(F)cc2F)C(=O)NC3)ccn1 [Compound 104, 4-(6-(2,4-difluorophenyl)-1-oxoisoindolin-5-yl)picolinonitrile]
1.5 µM | N#Cc1cc(-c2cc3c(cc2-c2ccc(F)cc2F)C(=O)NC3)ccc1F [Compound 93, 5-(6-(2,4-difluorophenyl)-1-oxoisoindolin-5-yl)-2-fluorobenzonitrile]
> 10 µM | O=C1NCc2cc(-c3cnc(C(F)(F)F)nc3)c(-c3ccc(F)cc3F)cc21 [Compound 86, 6-(2,4-difluorophenyl)-5-(2-(trifluoromethyl)pyrimidin-5-yl)isoindolin-1-one]
0.618 µM | COc1ccc(-c2cc3c(cc2-c2ccc(F)cc2F)C(=O)NC3)cc1C#N [Compound 92, 5-(6-(2,4-difluorophenyl)-1-oxoisoindolin-5-yl)-2-methoxybenzonitrile]
> 10 µM | N#Cc1cccc(-n2cc(-c3cc4c(cc3-c3ccc(F)cc3F)C(=O)NC4)cn2)c1 [Compound 99, 3-(4-(6-(2,4-difluorophenyl)-1-oxoisoindolin-5-yl)-1H-pyrazol-1-yl)benzonitrile]
1.86 µM | O=C1NCc2cc(-c3ccc(C(F)(F)F)nc3)c(-c3ccc(F)cc3F)cc21 [Compound 79, 6-(2,4-difluorophenyl)-5-(6-(trifluoromethyl)pyridin-3-yl)isoindolin-1-one]
> 10 µM | CN1CCN(c2ccc(-c3cc4c(cc3-c3ccc(F)cc3F)C(=O)NC4)cc2)CC1 [Compound 113, 6-(2,4-difluorophenyl)-5-(4-(4-methylpiperazin-1-yl)phenyl)isoindolin-1-one]
> 10 µM | CC1CC(c2cc3c(cc2-c2ccc(F)cc2)C(=O)NC3)CCN1 (centres unmarked) [Compound 85, 6-(4-fluorophenyl)-5-(2-methylpiperidin-4-yl)isoindolin-1-one]
0.925 µM | O=C1NCc2cc(-c3ccc4[nH]ccc4c3)c(-c3ccc(F)cc3F)cc21 [Compound 89, 6-(2,4-difluorophenyl)-5-(1H-indol-5-yl)isoindolin-1-one]
> 10 µM | CC1CNCCC1c1cc2c(cc1-c1ccc(F)cc1)C(=O)NC2 (centres unmarked) [Compound 77, 6-(4-fluorophenyl)-5-(3-methylpiperidin-4-yl)isoindolin-1-one]
> 10 µM | O=C1NCc2cc(-c3cccnc3C(F)(F)F)c(-c3ccc(F)cc3F)cc21 [Compound 110, 6-(2,4-difluorophenyl)-5-(2-(trifluoromethyl)pyridin-3-yl)isoindolin-1-one]
2.88 µM | N#Cc1ccc(-c2cc3c(cc2-c2ccc(F)cc2F)C(=O)NC3)c(F)c1 [Compound 103, 4-(6-(2,4-difluorophenyl)-1-oxoisoindolin-5-yl)-3-fluorobenzonitrile]
